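Protocol summary: plate cells (96-well), add compound at 5 concentrations, incubate 48 h, interpolate endpoints linearly. At the TGI there is no net growth.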
Tests used:
Experiment in all cases: NCI anticancer screen, dose series, 48 h
CCRF-CEM leukemia = test system: CCRF-CEM leukemia
RXF 393 renal = test system: RXF 393 renal
IGROV1 ovarian = test system: IGROV1 ovarian
NCI-H23 lung = test system: NCI-H23 lung
UACC-257 melanoma = test system: UACC-257 melanoma
ACHN renal = test system: ACHN renal
EKVX NSCLC = test system: EKVX NSCLC
NCI-H522 lung = test system: NCI-H522 lung
LOX IMVI melanoma = test system: LOX IMVI melanoma
M14 melanoma = test system: M14 melanoma
OVCAR-5 ovarian = test system: OVCAR-5 ovarian
SK-MEL-28 melanoma = test system: SK-MEL-28 melanoma
A549 NSCLC = test system: A549 NSCLC
TK-10 renal = test system: TK-10 renal
NCI-H226 lung = test system: NCI-H226 lung
HT29 colon = test system: HT29 colon
UO-31 renal = test system: UO-31 renal
OVCAR-8 ovarian = test system: OVCAR-8 ovarian
SK-MEL-5 melanoma = test system: SK-MEL-5 melanoma
HL-60(TB) leukemia = test system: HL-60(TB) leukemia

Compound | TGI (CCRF-CEM leukemia) | TGI (RXF 393 renal) | TGI (IGROV1 ovarian) | TGI (NCI-H23 lung) | TGI (UACC-257 melanoma) | TGI (ACHN renal) | TGI (EKVX NSCLC) | TGI (NCI-H522 lung) | TGI (LOX IMVI melanoma) | TGI (M14 melanoma) | TGI (OVCAR-5 ovarian) | TGI (SK-MEL-28 melanoma) | TGI (A549 NSCLC) | TGI (TK-10 renal) | TGI (NCI-H226 lung) | TGI (HT29 colon) | TGI (UO-31 renal) | TGI (OVCAR-8 ovarian) | TGI (SK-MEL-5 melanoma) | TGI (HL-60(TB) leukemia)
OCCOCCN1CCN(CCCN2c3ccccc3Sc3ccc(C(F)(F)F)cc32)CC1 | 1.32 µM | 9.85 µM | 22.2 µM | 31 µM | 18.3 µM | 31.8 µM | 29.2 µM | 28.2 µM | 15.1 µM | 5.39 µM | 27.3 µM | 9.55 µM | 27.1 µM | 24.1 µM | 37.2 µM | 7.65 µM | 20.6 µM | 30 µM | 13.8 µM | –
O=C1Nc2ccccc2C1=Nc1cccc2ncccc12 | – | > 100 µM | > 100 µM | > 100 µM | > 100 µM | > 100 µM | 85.6 µM | > 100 µM | > 100 µM | > 100 µM | > 100 µM | > 100 µM | > 100 µM | > 100 µM | > 100 µM | > 100 µM | > 100 µM | > 100 µM | > 100 µM | –
O=C1NC2=C(CCCC/C2=N\O)C12CCCCC2 | – | > 100 µM | > 100 µM | > 100 µM | > 100 µM | > 100 µM | > 100 µM | – | > 100 µM | > 100 µM | > 100 µM | > 100 µM | > 100 µM | > 100 µM | > 100 µM | > 100 µM | > 100 µM | – | – | > 100 µM
NCCCOc1ccc([N+](=O)[O-])cc1Cl | > 100 µM | – | > 100 µM | > 100 µM | > 100 µM | > 100 µM | – | 18.2 µM | – | > 100 µM | > 100 µM | > 100 µM | > 100 µM | > 100 µM | > 100 µM | > 100 µM | > 100 µM | > 100 µM | > 100 µM | > 100 µM
c1coc(CNc2ncnc3[nH]ncc23)c1 | > 100 µM | > 100 µM | > 100 µM | > 100 µM | > 100 µM | > 100 µM | > 100 µM | > 100 µM | > 100 µM | > 100 µM | > 100 µM | > 100 µM | > 100 µM | > 100 µM | > 100 µM | > 100 µM | > 100 µM | > 100 µM | > 100 µM | > 100 µM
CC(=O)c1ccc2c(c1)c1c(C)c3c[n+](C)ccc3c(C)c1n2C | > 46.3 µM | 42.8 µM | > 100 µM | – | 36.2 µM | – | > 100 µM | > 100 µM | 49.4 µM | – | > 100 µM | 32.3 µM | > 100 µM | – | 11.8 µM | > 100 µM | > 23.7 µM | 39.9 µM | > 47.8 µM | > 68.6 µM
CCN(CC)CCNc1ccc2nnn3c4ccc(C)cc4c(=O)c1c23 | 25.6 µM | – | 26.4 µM | 24.7 µM | 26.5 µM | 21.3 µM | – | 20.5 µM | 14.8 µM | 26.4 µM | 21.4 µM | 28.9 µM | 19.3 µM | 28.8 µM | 23.9 µM | 16.1 µM | 22.2 µM | 20.9 µM | 22.5 µM | 16.8 µM
Brc1ccc(C2CC(c3cccc4ccccc34)=Nc3ccccc3S2)cc1 (centres undefined) | 81.6 µM | > 100 µM | > 100 µM | > 100 µM | > 100 µM | > 100 µM | > 100 µM | > 100 µM | > 100 µM | > 100 µM | > 100 µM | > 100 µM | > 100 µM | > 100 µM | > 100 µM | > 100 µM | > 100 µM | > 100 µM | > 100 µM | > 100 µM
